The results in this text go back to paper PMC8498988, “Scaffold Hybridization Strategy Leads to the Discovery of Dopamine D3 Receptor-Selective or Multitarget Bitopic Ligands Potentially Useful for Central Nervous System Disorders” (ACS Chemical Neuroscience, 2021).

The target in one test is 5-HT2AR (Homo sapiens, UniProt P28223). The test is described as follows: Radioligand binding assay at human 5-HT2AR ([125I]DOI, HEK cells). On the set-up: expressed in transfected cells; host or cells: HEK (HEK-h5HT2A). The following applies: HEK cells expressing h5-HT2AR, read-out: Ki ± SEM, 5-HT2AR. The method, then:
Human embryonic kidney cells expressing human 5HT2AR (HEK-h5HT2A) or human 5HT2CR (HEK-h5HT2C) are used. The cells are grown until confluent on 15 cm plates. The medium is removed, and the cells are washed with phosphate-buffered saline (PBS), scraped into 2 mL PBS, and frozen at −20 °C until needed. Cell suspension is thawed, 10 mL assay buffer (50 mM Tris, pH 7.4 at 37 °C, with 0.1% ascorbic acid and 5 mM CaCl2) is added per plate of cells, and polytronned at setting 6 for 5 s. The homogenate is centrifuged at 15,500 rpm for 20 min. To minimize the residual 5HT concentration, the pellet is resuspended in buffer, polytronned, and centrifuged as mentioned above. The final pellet is resuspended in 2 mL buffer/plate of cells. The binding assay includes 50 μL drug, 5-HT or buffer, 50 μL cell homogenate, 50 μL [^125I]DOI (∼0.1 nM), and buffer in a final volume of 250 μL. Specific binding is defined as the difference between total binding and binding in the presence of 10 μM 5HT. The reaction is incubated for 1 h at 37 °C and terminated by filtration through Wallac A filter mats presoaked in 0.05% polyethylenimine using a Tomtec 96-well harvester. The radioactivity remaining on filters is determined using a Wallac betaplate reader.

The next test has as its target T1, human 5-HT1AR (Homo sapiens, UniProt P08908).
T1 construct: expressed in transfected cells; host or cells: HeLa
T1 sequence (P08908 1-422): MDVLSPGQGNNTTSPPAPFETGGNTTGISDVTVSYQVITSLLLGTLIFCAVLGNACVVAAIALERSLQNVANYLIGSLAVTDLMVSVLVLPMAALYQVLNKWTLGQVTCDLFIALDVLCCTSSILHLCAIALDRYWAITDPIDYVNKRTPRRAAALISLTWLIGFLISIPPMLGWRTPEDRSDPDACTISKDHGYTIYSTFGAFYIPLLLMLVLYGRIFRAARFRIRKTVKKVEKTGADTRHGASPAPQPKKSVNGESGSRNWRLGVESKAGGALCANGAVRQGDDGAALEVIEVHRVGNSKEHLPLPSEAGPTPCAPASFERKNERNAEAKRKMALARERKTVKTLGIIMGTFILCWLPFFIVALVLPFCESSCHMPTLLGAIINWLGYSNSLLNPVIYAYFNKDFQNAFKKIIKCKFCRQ
The test is described as follows: Radioligand binding assay at human 5-HT1AR ([3H]8-OH-DPAT, HeLa cells). To be noted: HeLa cells expressing h5-HT1AR, read-out: Ki ± SEM, 5-HT1AR. The method, then:
A human cell line (HeLa) stably transfected with genomic clone G-21 coding for the human 5-HT1AR was used. Cells were grown as monolayers in Dulbecco’s modified Eagle’s medium supplemented with 10% fetal calf serum and gentamycin (100 μg/mL) under 5% CO2 at 37 °C. Cells were detached from the growth flask at 95% confluency by a cell scraper and were lysed in ice-cold Tris (5 mM) and EDTA buffer (5 mM, pH 7.4). Homogenates were centrifuged for 20 min at 40000g, and pellets were resuspended in a small volume of ice-cold Tris/EDTA buffer (above) and immediately frozen and stored at -70 °C until use. On the day of experiment, cell membranes (80–90 μg of protein) were resuspended in binding buffer (50 mM Tris, 2.5 mM MgCl2, and 10 mM pargyline, pH 7.4). Membranes were incubated in a final volume of 0.32 mL for 30 min at 30 °C with 1 nM [^3H]8-OH-DPAT in the absence or presence of various concentrations of competing drugs (1 pM to 1 μM); each experimental condition was performed in triplicate. Nonspecific binding was determined in the presence of 10 μM 5-HT.

The next test has as its target D2R (Homo sapiens, UniProt P14416). As to the kind of experiment: D2 mitogenesis functional assay (CHOp-D2 cells). The format is cell-based. On the set-up: expressed in transfected cells; host or cells: CHOp-D2 cells. To be noted: for IC50 / % inhib., D2 mitogenesis assay: antagonist mode; for IC50: inhibition of quinpirole stimulation of mitogenesis; for % inhib., D2 mitogenesis assay: standard antagonist (+)-butaclamol; for functional behavior at D2R: in words. As to the method:
CHOp-D2 and CHOp-D3 cells are maintained in α-MEM with 10% fetal bovine serum (FBS, Atlas Biologicals), 0.05% pen-strep, and 400 μg/mL of G418. […] The cells are incubated at 37 °C in α-MEM with 10% FBS. After 48–72 h, the cells are rinsed twice with serum-free α-MEM and incubated for 24 h at 37 °C. Serial dilutions of test compounds are made by the Biomek robotics system in serum-free α-MEM. In the functional assay for agonists, the medium is removed and replaced with 100 μL of test compound in serum-free α-MEM. In the antagonist assay, the serial dilution of the putative antagonist test compound is added in 90 μL (1.1× of final concentration) and 300 nM quinpirole (30 nM final) is added in 10 μL. After another 24 h (D2) or 16 h (D3) incubation at 37 °C, 0.25 μCi of [^3H]thymidine in αMEM supplemented with 10% FBS is added to each well, and the plates are further incubated for 2 h at 37 °C. The cells are trypsinized by addition of 10× trypsin solution (1% trypsin in calcium–magnesium-free phosphate-buffered saline), and the plates are filtered and counted as usual. Quinpirole is run each day as an internal control, and dopamine is included for comparative purposes.

By Ki is commonly meant the equilibrium dissociation constant of an inhibitor or competing ligand from its target. What is called IC50 is the concentration needed to halve the response being measured.

Chain of 5-HT2AR (P28223 whole entry): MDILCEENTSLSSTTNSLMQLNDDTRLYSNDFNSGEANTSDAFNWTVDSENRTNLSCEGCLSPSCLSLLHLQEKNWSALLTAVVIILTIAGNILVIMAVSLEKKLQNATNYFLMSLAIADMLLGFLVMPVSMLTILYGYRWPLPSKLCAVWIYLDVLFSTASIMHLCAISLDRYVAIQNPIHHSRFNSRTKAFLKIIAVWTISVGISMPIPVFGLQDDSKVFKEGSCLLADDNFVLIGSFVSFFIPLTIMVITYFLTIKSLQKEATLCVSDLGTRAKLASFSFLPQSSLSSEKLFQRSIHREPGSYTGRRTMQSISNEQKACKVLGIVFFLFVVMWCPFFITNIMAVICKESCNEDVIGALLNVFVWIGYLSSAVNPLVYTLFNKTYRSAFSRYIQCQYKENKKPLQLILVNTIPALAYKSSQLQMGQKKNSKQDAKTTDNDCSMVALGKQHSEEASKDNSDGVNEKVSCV
Chain of D2R (P14416 whole entry): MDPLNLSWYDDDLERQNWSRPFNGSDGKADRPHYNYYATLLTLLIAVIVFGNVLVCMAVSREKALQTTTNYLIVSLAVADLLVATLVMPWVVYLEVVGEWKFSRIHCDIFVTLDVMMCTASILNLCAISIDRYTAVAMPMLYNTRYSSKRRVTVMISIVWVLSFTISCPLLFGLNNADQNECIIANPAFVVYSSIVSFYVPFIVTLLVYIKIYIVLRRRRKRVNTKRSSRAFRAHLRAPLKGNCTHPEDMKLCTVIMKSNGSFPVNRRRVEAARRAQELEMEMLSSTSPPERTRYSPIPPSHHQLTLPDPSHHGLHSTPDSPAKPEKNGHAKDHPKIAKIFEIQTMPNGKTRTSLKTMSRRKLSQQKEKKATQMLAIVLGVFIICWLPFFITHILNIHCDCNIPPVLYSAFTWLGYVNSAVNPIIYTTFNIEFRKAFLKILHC

`O=C(NCCCCN1CCN(c2cccc(Cl)c2Cl)CC1)C1COCC(c2ccccc2)(c2ccccc2)O1` (stereo not drawn) [compound 3, N-(4-(4-(2,3-Dichlorophenyl)piperazin-1-yl)butyl)-6,6-diphenyl-1,4-dioxane-2-carboxamide]: at 5-HT2AR, the Ki is 0.257 ± 0.038 µM. Also, the Ki on human 5-HT1AR was found to be 0.288 ± 0.015 µM. On D2R, it took 0.139 µM to reach half-maximal inhibition (IC50); the “% inhib., D2 mitogenesis assay” value is listed as “(93.5) %”; the “functional behavior at D2R” value is listed as “weak D2R antagonist”.

With `O=C(NCCCCN1CCN(c2cccc(Cl)c2Cl)CC1)C1COC(c2ccccc2)(c2ccccc2)CO1` (stereo not drawn) [compound 6, N-(4-(4-(2,3-Dichlorophenyl)piperazin-1-yl)butyl)-5,5-diphenyl-1,4-dioxane-2-carboxamide], the Ki at 5-HT2AR came to 0.028 ± 0.006 µM. Further, the Ki at human 5-HT1AR was 0.0091 ± 0.00097 µM. Also, at D2R, half-maximal inhibition (IC50) required 0.0085 µM; the “% inhib., D2 mitogenesis assay” value is on record as “(95.2) %”; the “functional behavior at D2R” value was “efficacious D2R and 5-HT2AR antagonists with high and low potency, respectively”.

As to `O=C(NCCCCN1CCN(c2cccc(Cl)c2Cl)CC1)C1COc2ccccc2O1` (stereo not drawn) [compound 9, N-(4-(4-(2,3-Dichlorophenyl)piperazin-1-yl)butyl)-2,3-dihydrobenzo[b][1,4]dioxine-2-carboxamide], at 5-HT2AR, the Ki was 0.062 ± 0.015 µM. The Ki at human 5-HT1AR was 0.0238 ± 0.0052 µM. Further, on D2R, inhibition was half-maximal at 0.04 µM (IC50); the “% inhib., D2 mitogenesis assay” value is listed as “(94.4) %”; the “functional behavior at D2R” value is “efficacious D2R and 5-HT2AR antagonists with high and low potency, respectively”.
